Counter-ions that a name gives are not always drawn. Like-named read-outs stand apart in the source and are kept apart here.
Key:
[1] = Drug library screen, cell viability (CellTiter-Glo); format: cell-based, human; settings: human
Summary of the method: (§1)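 ARID1A-WT and ARID1A-KO HCT116 cells screened against the library; viability read after 5 days by CellTiter-Glo luminescence, expressed relative to DMSO-treated cells. Hits: KO viability below 40% with WT viability above 80%.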

ARID1A-KO HCT116 cells = test: as above; format: cell-based, human; settings: Homo sapiens, HCT-116, 120 h, read-out: Cell viability, KO
Summary of the method: as §1

[2] = HCT116 ARID1A-WT, 10 μM for 5 days, relative to cells treated with solvent (DMSO), read-out: Cell viability, WT
[3] = HCT116 ARID1A-KO, 10 μM for 5 days, relative to cells treated with solvent (DMSO)

Row | SMILES | viability at 5 days, 10 μM [1, 2] | viability at 10 µM (ARID1A-KO HCT116 cells; [3]) | also measured
1 | C[C@@H]1C[C@H]2O[C@@H]2/C=C\C=C\C(=O)Cc2c(Cl)c(O)cc(O)c2C(=O)O1 [Radicicol] | 7.12% | 5.65% | 
2 | CCCS(=O)(=O)Nc1ccc(F)c(C(=O)c2c[nH]c3ncc(-c4ccc(Cl)cc4)cc23)c1F [Vemurafenib] | 103% | 108% | 
3 | COc1cc([C@@H]2c3cc4c(cc3[C@@H](O[C@@H]3O[C@@H]5CO[C@@H](C)O[C@H]5[C@H](O)[C@H]3O)[C@H]3COC(=O)[C@H]23)OCO4)cc(OC)c1O [Etoposide (VP-16), Etoposide] | 30.6% | 27.4% | 
4 | Cc1ccc(Nc2nccc(N(C)c3ccc4c(C)n(C)nc4c3)n2)cc1S(N)(=O)=O [pazopanib] | 19.8% | 39.8% | 
5 | CO[C@H]1C[C@@H]2CC[C@@H](C)[C@@](O)(O2)C(=O)C(=O)N2CCCC[C@H]2C(=O)O[C@H]([C@H](C)C[C@@H]2CC[C@@H](OCCO)[C@H](OC)C2)CC(=O)[C@H](C)/C=C(\C)[C@@H](O)[C@@H](OC)C(=O)[C@H](C)C[C@H](C)/C=C/C=C/C=C/1C [everolimus] | 77.4% | 77.1% | 
6 | CNC(=O)c1cc(Oc2ccc(NC(=O)Nc3ccc(Cl)c(C(F)(F)F)c3)cc2)ccn1 [sorafenib] | 61.4% | 70.4% | 
7 | CC[C@@]1([C@@H]2O[C@@H]([C@H]3O[C@@](O)(CO)[C@H](C)C[C@@H]3C)C[C@@H]2C)CC[C@H]([C@]2(C)CC[C@]3(C[C@H](O)[C@@H](C)[C@@H]([C@@H](C)[C@@H](OC)[C@H](C)C(=O)O)O3)O2)O1 [Monensin] |  |  | viability at 5 days, 10 μM [1]: 3.45%; viability at 10 µM (ARID1A-KO HCT116 cells): 3.95%
8 | CC1=C(O)C(=O)[C@@H]2O[C@@H]2C1=O [Terreic acid] |  | 90.5% | viability [1, 2]: 88.9%
9 | COc1c(C=O)c(O)cc2c1C(=O)c1ccccc1C2=O [Damnacanthal] | 185% | 138% | 
10 | N#CC[C@H](C1CCCC1)n1cc(-c2ncnc3[nH]ccc23)cn1 [Ruxolitinib] | 58.1% | 86.1% | 
11 | CO[C@@H]1C[C@@H](C[C@H]2CC[C@H](C)[C@H]([C@@H](C)C(=O)O)O2)O[C@]2(O[C@](C)([C@H]3CC[C@@](C)([C@@H]4O[C@@H]([C@H]5O[C@@](O)(CO)[C@H](C)C[C@@H]5C)C[C@@H]4C)O3)C[C@H]2C)[C@@H]1C [Nigericin] |  |  | viability at 5 days, 10 μM [1]: 3.47%; viability at 10 µM (ARID1A-KO HCT116 cells): 4.01%
12 | CCn1cc(C(=O)O)c(=O)c2ccc(C)nc21 [Nalidixic acid] | 102% | 97.5% | 
13 | C#Cc1cccc(Nc2ncnc3cc(OCCOC)c(OCCOC)cc23)c1 [erlotinib] | 48.1% | 48.6% | 
14 | CN(N=O)c1cc(O)ccc1O [Dephostatin] |  | 60.2% | viability [1, 2]: 90.4%
15 | O=C(O)c1nn(Cc2ccc(Cl)cc2Cl)c2ccccc12 [Lonidamine] | 98.4% | 116% | 
16 | CS(=O)(=O)CCNCc1ccc(-c2ccc3ncnc(Nc4ccc(OCc5cccc(F)c5)c(Cl)c4)c3c2)o1 [lapatinib] | 52.7% | 78.4% | 
17 | O=C(CCCCCN1C(=O)c2cccc3cccc(c23)C1=O)NO [Scriptaid] | 6.95% | 5.74% | 
18 | N=C(N)NN [Aminoguanidine, HCl] | 188% | 128% | 
19 | N#CC(=C(/N)Sc1ccccc1N)/C(C#N)=C(\N)Sc1ccccc1N [U0126] |  |  | viability [1]: 80.5%; viability at 10 µM (ARID1A-KO HCT116 cells): 68.3%
20 | C[C@@H]1C[C@@H]([C@H](O)CC2CC(=O)NC(=O)C2)C(=O)[C@@H](C)C1 [Cycloheximide] |  | 10.1% | viability [1, 2]: 9.33%
21 | COc1ccc([C@@H]2Sc3ccccc3N(CCN(C)C)C(=O)[C@@H]2OC(C)=O)cc1 [Diltiazem] | 102% | 115% | 
22 | COc1cccc2c1C(=O)c1c(O)c3c(c(O)c1C2=O)C[C@@](O)(C(C)=O)C[C@@H]3O[C@H]1C[C@H](N)[C@H](O)[C@H](C)O1 [Daunorubicin, HCl] | 5.21% |  | viability at 10 µM (ARID1A-KO HCT116 cells): 4.45%
23 | NC(=O)c1cccc2cn(-c3ccc([C@@H]4CCCNC4)cc3)nc12 [MK-4827 (Niraparib), Niraparib] | 29.3% | 28.7% | 
24 | Nc1cccc2c1CN(C1CCC(=O)NC1=O)C2=O (stereo not drawn) [lenalidomide] | 91.1% | 112% | 
25 | Oc1nc(-c2ccc(C(F)(F)F)cc2)nc2c1CSCC2 [XAV939] | 87% | 111% | 
26 | COC(=O)Nc1nc2ccc(C(=O)c3cccs3)cc2[nH]1 [Nocodazole] | 6.51% |  | viability at 10 µM (ARID1A-KO HCT116 cells): 7.15%
27 | O[C@H]1[C@H]2[C@H](O)CCCN2C[C@H]1O [Swainsonine] |  | 110% | viability [1, 2]: 115%

Row | SMILES | viability at 5 days, 10 μM [1, 2] | viability at 10 µM (ARID1A-KO HCT116 cells; [3]) | also measured
28 | CC(C)C[C@@H](N)[C@H](O)C(=O)N[C@H](C(=O)N[C@H](C(=O)N[C@@H](CC(=O)O)C(=O)O)C(C)C)C(C)C [Amastatin] | 102% | 110% | 
29 | CC(Cc1ccc(O)c(O)c1)C(C)Cc1ccc(O)c(O)c1 (stereo not drawn) [Nordihydroguaiaretic acid (NDGA), Nordihydroguaiaretic acid] | 101% | 112% | 
30 | CCCCC[C@H](CC(=O)NO)C(=O)N[C@H](C(=O)N1CCC[C@H]1CO)C(C)C [Actinonin] | 88.5% | 103% | 
31 | CC[C@@]1(O)C(=O)OCc2c1cc1n(c2=O)Cc2cc3ccccc3nc2-1 [Camptothecin] | 2.97% | 4.03% | 
32 | CCCCCCCCCCC1=C(C)C(=O)C(OC)=C(OC)C1=O [Decylubiquinone] | 85.7% | 100% | 
33 | CC(C)(C)NC(=O)[C@H]1CC[C@H]2[C@@H]3CC[C@H]4NC(=O)C=C[C@]4(C)[C@H]3CC[C@]12C [Finasteride] | 99.6% | 108% | 
34 | NNCCc1ccccc1 [Phenelzine] | 101% | 119% | 
35 | COc1cc2c(Nc3ccc(Br)cc3F)ncnc2cc1OCC1CCN(C)CC1 [Vandetanib] | 14.1% | 28.9% | 
36 | CS(=O)(=O)c1ccc(C(=O)Nc2ccc(Cl)c(-c3ccccn3)c2)c(Cl)c1 [Vismodegib] | 88.7% | 109% | 
37 | C[C@]12CCC(=O)C(O)=C1CC[C@@H]1[C@@H]2CC[C@]2(C)C(=O)CC[C@@H]12 [Formestane] |  | 69.5% | viability [1, 2]: 108%
38 | C[C@@H]1C[C@H]2[C@@H]3CCC4=CC(=O)C=C[C@]4(C)[C@@]3(F)[C@@H](O)C[C@]2(C)[C@@]1(O)C(=O)CO [Dexamethasone] | 212% | 162% | 
39 | O=C1NC(=O)c2c1c1c3ccccc3[nH]c1n1cncc21 [isogranulatimide] | 118% | 151% | 
40 | C[C@@H](Oc1cc(-c2cnn(C3CCNCC3)c2)cnc1N)c1c(Cl)ccc(F)c1Cl [crizotinib] | 2.29% | 5.88% | 
41 | C[C@@H]1O[C@@H](O[C@H]2C[C@@H](O)[C@]3(CO)[C@H]4[C@H](O)C[C@]5(C)[C@@H](C6=CC(=O)OC6)CC[C@]5(O)[C@@H]4CC[C@]3(O)C2)[C@H](O)[C@H](O)[C@H]1O [Ouabain] |  | 5.12% | viability [1, 2]: 4.81%
42 | C=C(C)[C@H]1Cc2c(ccc3c2O[C@@H]2COc4cc(OC)c(OC)cc4[C@@H]2C3=O)O1 [Rotenone] |  | 6.99% | viability [1, 2]: 5.52%
43 | Cc1ccc(NC(=O)c2ccc(CN3CCN(C)CC3)cc2)cc1Nc1nccc(-c2cccnc2)n1 [imatinib mesylate] | 37.2% | 55.4% | 
44 | CNC(=O)c1ccccc1Sc1ccc2c(/C=C/c3ccccn3)n[nH]c2c1 [Axitinib] | 36.4% | 42.6% | 
45 | CNCCCN1c2ccccc2CCc2ccccc21 [desipramine hydrochloride] | 34.6% | 63.1% | 
46 | C[C@H](CCC(=O)O)C[C@H](C)C[C@H](C)C(=O)/C=C(\O)[C@H](C)C[C@H](C)C/C=C/[C@@H](C)[C@@H](O)[C@@H](C)[C@@H](O)C[C@@H]1CC[C@@](C)([C@H]2CC[C@@](C)([C@@H](C)O)O2)O1 [Ionomycin] |  | 35.9% | viability [1, 2]: 31.8%
47 | COc1cc2nc(N3CCCN(C)CC3)nc(NC3CCN(Cc4ccccc4)CC3)c2cc1OC [BIX01294] | 2.57% | 4.49% | 
48 | CC1=C2C(=O)[C@H]3[C@@H](CC=C4C[C@@H](O)CC[C@@]43C)[C@@H]2CC[C@]12O[C@@H]1C[C@H](C)CN[C@H]1[C@H]2C [Jervine] |  | 90.1% | viability [1, 2]: 74.4%
49 | Cn1c(=O)c2[nH]cnc2n(C)c1=O [Theophylline] | 203% | 140% | 
50 | O=c1oc2c(O)c(O)cc3c(=O)oc4c(O)c(O)cc1c4c23 [Ellagic acid] | 127% | 161% | 
51 | NCC(=O)Nc1ccc(-n2nc(C(F)(F)F)cc2-c2ccc3c(ccc4ccccc43)c2)cc1 [OSU-03012] | 91.9% | 105% | 
52 | COc1ccc(Cl)cc1C(=O)NCCc1ccc(S(=O)(=O)NC(=O)NC2CCCCC2)cc1 [Glibenclamide] | 108% | 109% | 
53 | COc1cccc2c1C(=O)c1c(O)c3c(c(O)c1C2=O)C[C@@](O)(C(=O)CO)C[C@@H]3O[C@H]1C[C@H](N)[C@H](O)[C@H](C)O1 [Doxorubicin, HCl] | 4.81% | 4.14% | 
54 | CC(=O)N[C@@H](CS)C(=O)O [N-Acetyl-L-cysteine] | 186% | 139% | 

From patent publication US20220087987A1, “A METHOD FOR TREATING SWI/SNF COMPLEX-DEFICIENT CANCERS COMPRISING GLUTATHIONE (GSH) METABOLIC PATHWAY INHIBITOR” (National Cancer Center, priority 2018, published 2022)
